{"source": "paper PMC6449294", "about": "“SNAPshots of the MCHR1: a Comparison Between the PET-Tracers [^18F]FE@SNAP and [^11C]SNAP-7941” (Molecular Imaging and Biology, 2018)", "key": {"[1]": {"set-up": "method as in PMID 23829932, PMID 24106662, PMID 27033361", "details": "result in words, not determined in this paper for this tracer; cited from earlier work"}, "P-gp/BCRP": {"test_system": "P-gp/BCRP", "experiment": "Small animal PET of mouse brain, vehicle vs pretreatment with P-gp/BCRP inhibitor TQD", "type": "in vivo", "details": "mice, TQD 15 mg/kg 30 min before radiotracer", "protocol": "Ten-week-old male rats (412 ± 58 g, Sprague-Dawley, HIM:OFA, n = 30) and 12-week-old male mice (24 ± 6 g, BALB/cAnNRj, n = 7) were purchased from the Division of Laboratory Animal Science and Genetics, Himberg, Austria. Animals were kept under conventional housing conditions (22 ± 1 °C; 40–70 % humidity) with food and water supply ad libitum and 12-h day/night cycle. All animals were treated according to the European Union rules on animal care and respective animal experiments were approved by the Austrian Ministry of Sciences, Research and Economy (BMWFW-66.009/0029-WF/V/3b/20159). For in vivo imaging, animals were anesthetized using 1.5–2 % isoflurane mixed with oxygen (1.5–2 l/min) to avoid movement during the examination. Anesthesia as well as vital parameters were monitored during the time interval of PET acquisition. Radioligands and non-labeled compounds were administered intravenously via the lateral tail vein.\nAnesthetized rats and mice were immobilized in a multimodal animal carrier unit (MACU; medres®—medical research GmbH, Cologne, Germany). The body temperature was preserved at 37 °C throughout the whole experiment. […]"}}}
{"smiles": "COCC1=C(C(=O)O[11CH3])C(c2ccc(F)c(F)c2)N(C(=O)NCCCN2CCC(c3cccc(NC(C)=O)c3)CC2)C(=O)N1", "note": "(centres unmarked) [[^11C]SNAP-7941]", "values": [{"measurement": "Metabolism in rat brain", "setting": "[1]", "value": "Stable"}]}
{"smiles": "COCC1=C(C(=O)OCC[18F])C(c2ccc(F)c(F)c2)N(C(=O)NCCCN2CCC(c3cccc(NC(C)=O)c3)CC2)C(=O)N1", "note": "(centres unmarked) [[^18F]FE@SNAP]", "values": [{"measurement": "increase of brain uptake in TQD blocking group vs vehicle", "setting": "P-gp/BCRP", "value": 1.93, "unit": "fold"}]}
